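1) Cells in 96-well plates. 2) Compound, 48 h, 5 concentrations. 3) Linear interpolation between surrounding doses. 4) Unreached endpoint = highest concentration. GI50 marks 50% less growth.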 Active and inactive are the calls of the source. No stated cut-off is given here; in the data, active = GI50 up to about 1.1 µM and inactive = higher.
How the values were obtained:
Experiment in all cases: growth of human tumour cells (NCI), 48 h
HT-29 = tested on: HT-29
PC-3 = tested on: PC-3
TK-10 = tested on: TK-10
M14 = tested on: M14
T47D = tested on: T47D
SK-MEL-5 = tested on: SK-MEL-5
MCF7 = tested on: MCF7
UACC-257 = tested on: UACC-257
IGROV-1 = tested on: IGROV-1
BT-549 = tested on: BT-549
UO-31 = tested on: UO-31
ACHN = tested on: ACHN
HL-60 = tested on: HL-60
KM12 = tested on: KM12
OVCAR-3 = tested on: OVCAR-3
HOP-92 = tested on: HOP-92
OVCAR-4 = tested on: OVCAR-4
HCC 2998 = tested on: HCC 2998
Malme-3M = tested on: Malme-3M
RPMI-8226 = tested on: RPMI-8226

Measured: GI50

CC(=O)C1C(=O)C(=O)N(c2cccc(C)c2C)C1=O (configuration not stated)
inactive: HT-29 > 100 µM | PC-3 > 100 µM | TK-10 > 100 µM | M14 > 100 µM | T47D > 100 µM | SK-MEL-5 > 100 µM | MCF7 > 100 µM | UACC-257 > 100 µM | IGROV-1 > 100 µM | BT-549 > 100 µM | UO-31 > 100 µM | ACHN > 100 µM | HL-60 > 100 µM | KM12 > 100 µM | OVCAR-3 > 100 µM | HOP-92 > 100 µM

Cc1c(C(=O)O)c2cc3ccccc3cc2c(=O)n1C
inactive: OVCAR-4 > 10 µM | HT-29 > 10 µM | HCC 2998 > 10 µM | Malme-3M > 10 µM | PC-3 > 10 µM | TK-10 > 10 µM | M14 > 10 µM | T47D > 10 µM | MCF7 > 10 µM | UACC-257 > 10 µM | IGROV-1 > 10 µM | BT-549 > 10 µM | UO-31 > 10 µM | ACHN > 10 µM | HL-60 > 10 µM | KM12 > 10 µM | OVCAR-3 > 10 µM | HOP-92 > 10 µM

CC(=O)Oc1c2c(c3n(c1=O)CCCC3)C(=O)N(c1ccccc1)C2=O
inactive: OVCAR-4 54.3 µM | HT-29 94.2 µM | HCC 2998 30.8 µM | Malme-3M > 100 µM | PC-3 46.5 µM | TK-10 94.6 µM | M14 > 100 µM | T47D 87.5 µM | SK-MEL-5 53.3 µM | MCF7 > 100 µM | IGROV-1 78.5 µM | BT-549 38.2 µM | UO-31 95.7 µM | ACHN 51.4 µM | HL-60 > 100 µM | KM12 > 100 µM | OVCAR-3 86.7 µM | HOP-92 40.7 µM

CN1C(=O)[C@@H]2N(CSC2(C)C)C1=S
inactive: OVCAR-4 > 100 µM | HT-29 > 100 µM | RPMI-8226 > 100 µM | HCC 2998 > 100 µM | PC-3 > 100 µM | TK-10 > 100 µM | M14 > 100 µM | T47D > 100 µM | SK-MEL-5 4.47 µM | MCF7 > 100 µM | UACC-257 > 100 µM | IGROV-1 > 100 µM | BT-549 > 100 µM | UO-31 > 100 µM | ACHN > 100 µM | KM12 > 100 µM | OVCAR-3 > 100 µM | HOP-92 98.6 µM

O=S(=O)(O)n1ccnc1
inactive: OVCAR-4 > 100 µM | HT-29 > 100 µM | RPMI-8226 > 100 µM | Malme-3M > 100 µM | PC-3 > 100 µM | TK-10 > 100 µM | M14 > 100 µM | T47D > 100 µM | SK-MEL-5 > 100 µM | MCF7 > 100 µM | UACC-257 > 100 µM | IGROV-1 > 100 µM | BT-549 > 100 µM | UO-31 > 100 µM | ACHN > 100 µM | HL-60 > 100 µM | KM12 > 100 µM | OVCAR-3 > 100 µM | HOP-92 > 100 µM

CCOC(=O)c1nc2ccc(C(F)(F)F)cc2nc1NCc1cc(OC)c(OC)c(OC)c1
inactive: HT-29 59.6 µM | RPMI-8226 17.7 µM | HCC 2998 57.9 µM | PC-3 41.9 µM | TK-10 > 100 µM | M14 > 100 µM | T47D 27.6 µM | SK-MEL-5 27.7 µM | MCF7 66.5 µM | UACC-257 > 100 µM | IGROV-1 > 100 µM | BT-549 > 100 µM | UO-31 35.3 µM | ACHN 50.6 µM | HL-60 33 µM | KM12 32.9 µM | OVCAR-3 55.5 µM | HOP-92 27.7 µM

COC(=O)N/N=C(\c1ccccc1)c1ccc(OC)cc1
inactive: OVCAR-4 > 100 µM | HT-29 > 100 µM | RPMI-8226 > 100 µM | HCC 2998 > 100 µM | Malme-3M > 100 µM | PC-3 > 100 µM | TK-10 > 100 µM | M14 > 100 µM | T47D > 100 µM | SK-MEL-5 > 100 µM | MCF7 > 100 µM | UACC-257 > 100 µM | IGROV-1 59.6 µM | BT-549 > 100 µM | UO-31 35.1 µM | HL-60 > 100 µM | KM12 > 100 µM | OVCAR-3 > 100 µM

O=C(O)c1cccc(/C=C/c2ccccc2)c1
inactive: OVCAR-4 > 100 µM | HT-29 > 100 µM | RPMI-8226 > 100 µM | Malme-3M 72.6 µM | PC-3 > 100 µM | TK-10 > 100 µM | M14 > 100 µM | T47D > 100 µM | SK-MEL-5 > 100 µM | MCF7 > 100 µM | UACC-257 > 100 µM | IGROV-1 > 100 µM | BT-549 > 100 µM | UO-31 > 100 µM | ACHN > 100 µM | KM12 > 100 µM | OVCAR-3 > 100 µM | HOP-92 > 100 µM

CCOC(=O)c1[nH]cc(C)c1-c1cccn1-c1ccc(Cl)cc1[N+](=O)[O-]
inactive: OVCAR-4 32.5 µM | HT-29 16.2 µM | HCC 2998 19.4 µM | PC-3 20.1 µM | TK-10 14.4 µM | M14 14.9 µM | T47D 31 µM | SK-MEL-5 14.9 µM | MCF7 30.7 µM | UACC-257 20.1 µM | IGROV-1 14.7 µM | BT-549 27.2 µM | UO-31 15.7 µM | ACHN 23.9 µM | KM12 20.1 µM | OVCAR-3 12 µM | HOP-92 17.9 µM

COC(=O)CCC(C)[C@H]1CCC2C3C(C[C@H](OC(C)=O)[C@@]21C)[C@@]1(C)CCC2(C[C@H]1C[C@H]3OC(C)=O)OOC1(CCCCCCC1)OO2 (some centres not stated)
inactive: OVCAR-4 39 µM | HT-29 9.08 µM | RPMI-8226 1.67 µM | Malme-3M 9.89 µM | PC-3 3.4 µM | TK-10 6.53 µM | M14 27.9 µM | T47D 2.02 µM | SK-MEL-5 6.5 µM | MCF7 6.64 µM | UACC-257 5.35 µM | IGROV-1 6.37 µM | BT-549 9.14 µM | UO-31 7.26 µM | ACHN 4.09 µM | HL-60 4.3 µM | KM12 4.88 µM | OVCAR-3 2.73 µM | HOP-92 7.55 µM

CC1(C)[N+]([O-])=[N+]([O-])C1(C)O (configuration not stated)
inactive: OVCAR-4 > 100 µM | HT-29 > 100 µM | RPMI-8226 > 100 µM | HCC 2998 > 100 µM | Malme-3M > 100 µM | PC-3 > 100 µM | TK-10 > 100 µM | M14 > 100 µM | T47D > 100 µM | SK-MEL-5 > 100 µM | MCF7 > 100 µM | UACC-257 > 100 µM | IGROV-1 > 100 µM | BT-549 > 100 µM | UO-31 > 100 µM | HL-60 > 100 µM | KM12 > 100 µM | OVCAR-3 > 100 µM

— ChEMBL document CHEMBL1201862, “PubChem BioAssay data set” (2004)
